Data on 2 molecules can be found in US7915263B2, “Aminopyridine derivatives having aurora A selective inhibitory action” (Banyu Pharmaceutical Co., Ltd., priority 2006, dated 2011).

For assay [1], the target named is T1, His-tagged human Aurora A (Homo sapiens, UniProt O14965).
T1 construct: made in house; host or cells: Escherichia coli BL21-CodonPlus(DE3)-RIL
T1 sequence (O14965 1-403): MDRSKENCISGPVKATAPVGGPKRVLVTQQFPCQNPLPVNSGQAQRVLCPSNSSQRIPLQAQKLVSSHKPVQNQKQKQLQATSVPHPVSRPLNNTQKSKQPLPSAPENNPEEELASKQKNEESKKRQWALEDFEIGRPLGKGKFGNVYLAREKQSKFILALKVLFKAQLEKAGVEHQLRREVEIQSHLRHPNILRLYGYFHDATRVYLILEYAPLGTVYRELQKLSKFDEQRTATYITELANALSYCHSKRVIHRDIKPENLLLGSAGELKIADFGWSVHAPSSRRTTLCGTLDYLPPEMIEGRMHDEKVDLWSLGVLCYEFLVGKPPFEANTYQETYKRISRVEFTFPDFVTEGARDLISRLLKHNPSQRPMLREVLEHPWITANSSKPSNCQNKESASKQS
The experiment in a line: Aurora A inhibitory activity (IMAP fluorescence polarization). Type of assay: biochemical. Particulars: 20 μM ATP, 30° C., 120 minutes. From the text: cDNA of N-terminal His-tagged human Aurora A was integrated into an expression vector, which was then highly expressed in Escherichia coli BL21-CodonPlus(DE3)-RIL cells. The Escherichia coli was harvested and lysed, and then the His-tagged human Aurora A protein was applied onto a nickel chelate column and eluted from the column with imidazole. The active fractions were desalted with a desalting column to give a purified enzyme.
Concretely, the phosphorylation reaction and the detection were carried out as follows:
The phosphorylation reaction was conducted using 384 well plate, and the reaction volume was 10 μl/well. The reaction buffer is comprised of 50 mM Tris-chloride buffer (pH 7.4), 15 mM magnesium acetate, and 0.2 mM ethylenediamine-N,N,N′,N′-tetraacetic acid (EDTA). […]
Thereafter, in order to terminate and detect the reaction, 30 μl of the IMAP (registered trademark) binding reagent (IMAP Progressive Binding Reagent, R7284) that had been diluted (1:400) in the 1× IMAP binding buffer A (IMAP Progressive Binding Buffer A, 5× stock, R7282) was added to each well. The solution stood still for 60 minutes in the dark, and then fluorescence polarization was measured using a high-end microplate reader (excitation wavelength: 485 nm; emission wavelength: 520 nm). […]
For orientation: Fluorescence polarisation rises when a labelled molecule tumbles more slowly, as on binding a larger partner.

Assay [2] concerns the target T2, GST-tagged human Aurora B(AurB)/His-tagged human INCENP complex proteins (Homo sapiens, UniProt Q96GD4).
T2 construct: GST; purchased Cama Biosciences, Inc. (so in the source)
Description: Aurora B inhibitory activity (Method A, IMAP kit). Type of assay: biochemical. Particulars: 40 μM ATP, 25° C., 45 minutes. As to the method: Using the same, the phosphorylation reaction was conducted in accordance with a partially revised protocol attached to the kit, and then the phosphorylation of the substrate was detected using the IMAP technology.
For the phosphorylation reaction, 384 well plate was used, and the reaction volume was 10 μl/well. The composition of the reaction buffer (assay buffer) is comprised of 20 mM of HEPES buffer (pH 7.4), 0.01% Tween-20, and 2 mM of dithiothreitol (DTT). Thereto, AurB/INCENP complex protein, 100 nM of the substrate, and 40 μM of ATP, and 1 mM of magnesium salt were added, and then the reaction was conducted at 25° C. for 45 minutes. Thereafter, in order to terminate and detect the reaction, 30 μl of the IMAP (registered trademark) binding reagent (IMAP Progressive Binding Reagent, R7284) that had been diluted (1:400) in the 1× IMAP binding buffer A (IMAP Progressive Binding Buffer A, 5× stock, R7282) was added to each well.
The compound to be tested was added to the reaction system such that a dilution series of the compound in DMSO was prepared, and then 0.5 μL of this solution was added for the testing to each well. Each control well was provided by adding 0.5 μL of DMSO to the well in place of the DMSO solution containing the compound to be tested.

In assay [3] the test system is Human cervical cancer cells (HeLa S3). The experiment in a line: Cell growth inhibitory effect, WST-8 method. Type of assay: cell-based. Particulars: 72 h, HeLa S3, three days incubation, read-out: Cell growth inhibitory effect (HeLaS3) (IC50). As to the method: Fetal calf serum (FCS) was purchased from Moregate Biotech, and DMEM medium was purchased from Invitrogen Corp. WST-8 was purchased from Kishida Chemical Co., Ltd.
(§1) Human cervical cancer cells (HeLa S3) were obtained from the American Type Culture Collection (ATCC).
Cells were suspended in a DMEM medium containing 10% FCS, and the cell suspension was dispensed to a 96-well plastic plate at a rate of 750 cells/100 microliters per well. The plate was incubated overnight in 5% CO2-95% air at 37° C. A drug was subjected to graded dilution in dimethylsulfoxide and further diluted with a DMEM medium containing 10% FCS. Then, the dilution was dispensed to the plate on which cells had been disseminated, at a rate of 100 microliters per well.
(Tetrazolium assays rely on reduction of a dye to a coloured formazan, in cell work by metabolically active cells.)

Assay [4] has the same test system. Description: Effect by combined use of drugs in cells (docetaxel), WST-8 method. Type of assay: cell-based. As to the method:
Fetal calf serum (FCS) was purchased from Moregate Biotech, DMEM medium from Invitrogen Corp., docetaxel (tradename: Taxere) from Sigma-Aldrich, Inc., and WST-8 from Kishida Chemical Co., Ltd.
as §1
Cells were suspended in a DMEM medium containing 10% FCS, and the cell suspension was dispensed to two 96-well plastic plates at a rate of 750 cells/100 microliters per well. The plates were incubated overnight in 5% CO2-95% air at 37° C. A drug was subjected to graded dilution in dimethylsulfoxide and further diluted with DMSO or with a DMEM medium containing 10% FCS and also containing 0.6 nM docetaxel. Then, the dilutions were each dispensed to one of the plates on which cells had been disseminated, at a rate of 100 microliters per well. The final concentration of docetaxel at this stage was 0.3 nM. Also, the concentrations in the case of sole administration of the compound according to the invention were 0.003, 0.01, 0.03, 0.1, 0.3, 1, 3 and 10 μM. The plates were incubated for further three days in 5% CO2-95% air at 37° C. Cell growth after incubation was measured by the WST-8 method (H. Tominaga, et al., Anal. Commun., 36, 47-50 (1999)). Here, the WST-8 method refers to a method in which 20 microliters of a WST-8 reagent solution is added to each well, incubation is conducted at 37° C. for 60 minutes, the plate is stirred, and the amount of formazan produced is measured by a colorimetric method to determine the inhibitory rate of the drug. The growth inhibitory effects of docetaxel and of the compound according to the invention were determined, with the value obtained in sole treatment of DMSO being defined as 0%.

One may read the IC50 as the concentration that gives 50% inhibition.

T2 sequence (Q96GD4 whole entry): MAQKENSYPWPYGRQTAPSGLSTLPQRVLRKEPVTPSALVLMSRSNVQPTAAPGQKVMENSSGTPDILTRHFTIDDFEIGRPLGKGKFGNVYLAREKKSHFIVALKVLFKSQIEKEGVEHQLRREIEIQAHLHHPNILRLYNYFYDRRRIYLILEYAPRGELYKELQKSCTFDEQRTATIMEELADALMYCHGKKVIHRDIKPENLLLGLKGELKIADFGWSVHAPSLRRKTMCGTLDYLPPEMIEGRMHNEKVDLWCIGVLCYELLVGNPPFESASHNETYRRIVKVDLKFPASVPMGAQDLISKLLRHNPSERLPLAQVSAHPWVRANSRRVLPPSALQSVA
T2 sequence (Q9NQS7 803-916 partner limits assumed): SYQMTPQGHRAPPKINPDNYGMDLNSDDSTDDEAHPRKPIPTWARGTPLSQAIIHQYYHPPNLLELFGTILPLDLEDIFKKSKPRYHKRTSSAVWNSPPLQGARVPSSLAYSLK

Regarding `Fc1c(O[C@H]2CC[C@](Cc3cccc(Nc4cc[nH]n4)n3)(c3nncs3)CC2)cccc1C(F)(F)F` [Example 27, 6-((trans-4-(2-fluoro-3-(trifluoromethyl)phenoxy)-1-(1,3,4-thiadiazol-2-yl)cyclohexyl)methyl)-N-1H-pyrazol-3-ylpyridin-2-amine], the results for the IC50 in assay [1] and in assay [2] were 0.0024 µM and 0.22 µM, respectively.

Regarding `O=c1[nH]nc([C@]2(Cc3cncc(Nc4cc[nH]n4)n3)CC[C@@H](Oc3cccc(Cl)c3F)CC2)o1` [Example 29, 5-(trans-4-(3-chloro-2-fluorophenoxy)-1-((6-(1H-pyrazol-3-ylamino)pyrazin-2-yl)methyl)cyclohexyl)-1,3,4-oxadiazol-2(3H)-one], the IC50 in assay [3] was determined as 0.67 µM; in assay [1], 0.00019 µM; in assay [2], 0.67 µM. The inhibition at 0.1 µM in assay [4] (Homo sapiens, HeLa S3, compound 0.1 μM alone, read-out: Cell growth inhibitory effect by sole administration of the compound of Example (%)) is 11.3%. The inhibition at 0.3 µM in assay [4] (Homo sapiens, HeLa S3, compound 0.3 μM alone, read-out: Cell growth inhibitory effect by sole administration of the compound of Example (%)) came to 39.9%. The “Cell growth inhibitory effect by combined administration of docetaxel and the compound of Example (%)” value turned out to be 79.0% in assay [4] (compound 0.1 μM + docetaxel 0.3 nM) and 92.9% in assay [4] (compound 0.3 μM + docetaxel 0.3 nM).
